Measurements published in patent US20120208848A1 (NEUROSYSTEC CORPORATION, priority 2005, published 2012).

Experiments:
Type in all cases: physicochemical
[1] = Elution of gacyclidine from a suspension of the free base form
Protocol: The pH of these solutions was monitored by use of a pH meter, as described in Example 3. […] The average temperature of these solutions was 23° C. and varied between 21 and 25° C.

[2] = Maintenance of gacyclidine in solution (HPLC solution concentration over time); conditions: 20° C.
Protocol: Gacyclidine was detected using a Surveyor HPLC system (Thermo Electron). A Grace Vydac C8 MASS SPEC column (cat #208MS5210; S/N NE981208-3-7) purchased from The Nest Group (Southboro, Mass.) was employed for these analyses. The chromatographic column was maintained at 30° C. Samples were prepared in 12 mm×32 mm autosampler vials (Thermo Electron, A4954-010) and maintained at 20° C. in the autosampler.
For maximum accuracy, a ‘full-loop’ injection protocol was employed, in which 80.7 μL was withdrawn from the vial to over-fill a 20 μL injection loop. The entire sample contained in the 20 μL injection loop was applied to the C8 chromatography column. The sample was then eluted at a flow rate of 300 μL/min with a step gradient composed of water containing 0.1% (volume/volume) trifluoroacetic acid (buffer A) and acetonitrile containing 0.1% (volume/volume) trifluoroacetic acid (buffer B). The step gradient consisted of elution with 100% buffer A from 0 to 5 minutes; 80% buffer A-20% buffer B from 5 to 15 minutes; 100% buffer B from 15 to 20 minutes and 100% buffer A from 20 to 25 minutes.
The column eluant was monitored at 234 nm by use of a Thermo Electron PDA UV detector. […] The presence of gacyclidine was confirmed by connecting the column eluant, after passage through the UV detector, to an AQA mass spectrometer (Thermo Electron).
An aliquot (10 μL) of these solutions was then added to 10.0 mL of either Ringer's Lactate (pH 6.6), Ringer's Lactate containing 100 μM NaOH (pH 7.5), or 0.1 N HCl (pH 1.0) to give a final drug concentration of 100 μM. Aliquots of these drug solutions were transferred to autosampler vials and maintained at 20° C. until being analyzed by HPLC.

[3] = Solubility of gacyclidine as a function of pH and excipients, room temperature, glass vials
Protocol: Thereafter the mixture remained standing at room temperature for two days.
The pH of the mixture was determined by use of a SympHony glass calomel micro combination pH electrode obtained from VWR (Cat. No. 14002-776). Oakton standard reference solutions at pH 7.00±0.01 (25° C.; 7.02 at 20° C.), 4.01±0.01 (25° C.; 4.00 at 20° C.) and 10.00 (25° C.; 10.05 at 20° C.) were obtained from Cole-Parmer. These standard pH solutions were used to calibrate a Cole-Parmer Model 5996-60 analog pH meter equipped with a SympHony electrode to within 0.01 pH units of reference solutions.

[4] = Gacyclidine decomposition in Ringer's Lactate at 37° C.
Protocol: To monitor piperidine formation a Zorbax SB-CN column (25×0.46 cm, 5 μm; PN 880975, SN USS F01 3866) purchased from Agilent Technologies was maintained at 30° C. and eluted with a mixture composed of 50% Buffer A and 50% Buffer B at 150 μL/minute for 60 minutes. Buffer A was composed of water containing 0.1% trifluoroacetic acid and Buffer B was composed of acetonitrile containing 0.1% trifluoroacetic acid. The effluent from this column was interfaced with an AQA single quadrupole mass spectrometer (Thermo Electron) and a Surveyor PDA detector (UV monitor, Thermo Electron). The column effluent was monitored at 232 nm and scans were collected between 200 to 300 nm by use of the PDA detector. […] Piperidine was detected by the mass spectrometer at 16.0 minutes after injection onto the Zorbax SB-CN column (at m/z=86 only). Piperidine could not be detected by use of the PDA (UV monitor).
The pH of these Ringer's Lactate solutions was adjusted by addition of hydrochloric acid or sodium bicarbonate ([…]). […] To analyze these samples for gacyclidine and piperidine, the samples were first extracted with methylene chloride and then back-extracted into dilute hydrochloric acid. To the 0.40 mL sample to be analyzed were added 50 μL of 1.0 M sodium hydroxide and 0.8 mL of methylene chloride. After vigorous mixing, the aqueous and methylene chloride layers were allowed to separate. To 0.4 mL of the methylene chloride phase were added 20 μL of 1.0 M hydrochloric acid and 0.78 mL of water. After vigorous mixing, the aqueous and methylene chloride layers were allowed to separate and the aqueous layer was analyzed for gacyclidine and piperidine. This extraction procedure was necessary to remove the salt present in the sample for optimum detection of piperidine.

[5] = Ringer's Lactate 133 μM NaHCO3, 1.10 days
[6] = Ringer's Lactate 133 μM NaHCO3, 1.54 days
[7] = Ringer's Lactate 133 μM NaHCO3, 5.79 days
[8] = Ringer's Lactate without pH adjustment, 1.10 days
[9] = Ringer's Lactate without pH adjustment, 1.54 days
[10] = Ringer's Lactate without pH adjustment, 5.79 days

CC1CCCCC1(c1cccs1)N1CCCCC1.Cl (stereo not shown) [gacyclidine, 1-(2-methyl-1-thiophen-2-yl-cyclohexyl)-piperidine hydrochloride]
gacyclidine ([1]; 2.8 mg free base in 20.0 mL Ringer's Lactate 133 μM NaHCO3, 23° C., 0.625 days): 20.7 µM
gacyclidine ([1]; 2.8 mg free base in 20.0 mL Ringer's Lactate without pH adjustment, 23° C., 0.625 days): 56.4 µM
pH of free base suspension ([1]; Ringer's Lactate 133 μM NaHCO3, 0.625 days): 7.54
gacyclidine [1, 5]: 37.1 µM
pH of free base suspension [1, 5]: 7.58
gacyclidine [1, 6]: 46.2 ± 0.3 µM
pH of free base suspension [1, 6]: 7.51
gacyclidine [1, 7]: 76.3 ± 0.3 µM
pH of free base suspension [1, 7]: 7.62
gacyclidine ([1]; Ringer's Lactate 133 μM NaHCO3, 9.85 days): 77.2 ± 0.5 µM
gacyclidine ([1]; Ringer's Lactate 133 μM NaHCO3, 12.9 days): 72.9 ± 1.1 µM
gacyclidine ([1]; Ringer's Lactate 133 μM NaHCO3, 14.0 days): 75.7 ± 2.0 µM
time to reach equilibrium concentration ([1]; Ringer's Lactate containing 0.13 mM sodium bicarbonate): ≤ 10 days
equilibrium concentration as % of the total amount of gacyclidine base added ([1]; Ringer's Lactate with added sodium bicarbonate): ~14%
equilibrium concentration as % of the total amount of gacyclidine base added ([1]; Ringer's Lactate without added sodium bicarbonate): about 30%
pH of free base suspension ([1]; Ringer's Lactate without pH adjustment, 0.625 days): 7.66
gacyclidine [1, 8]: 79.8 µM
pH of free base suspension [1, 8]: 7.44
gacyclidine [1, 9]: 88.3 ± 2.4 µM
pH of free base suspension [1, 9]: 7.46
gacyclidine [1, 10]: 124.4 ± 14.5 µM
pH of free base suspension [1, 10]: 7.38
gacyclidine ([1]; Ringer's Lactate without pH adjustment, 9.85 days): 152.4 ± 0.7 µM
gacyclidine ([1]; Ringer's Lactate without pH adjustment, 12.9 days): 162.2 ± 1.4 µM
gacyclidine ([1]; Ringer's Lactate without pH adjustment, 14.0 days): 157.9 ± 3.6 µM
time to reach equilibrium concentration ([1]; Ringer's Lactate without sodium bicarbonate): ≤ 10 days
maximum concentration achieved at equilibrium ([1]; solid gacyclidine base, starting pH near physiologic pH): about 75 μM
concentration of gacyclidine ([2]; DMSO stock 1:1000 (0.1% DMSO), Ringer's Lactate pH 7.5, 100 μM initial, 0-3 hours): 97.5 µM
concentration of gacyclidine ([2]; DMSO stock 1:1000, 0.1N HCl (pH 1.0), 100 μM initial, 0-3 hours): 100.3 µM
concentration of gacyclidine ([2]; DMSO stock 1:1000, 0.1N HCl (pH 1.0), 100 μM initial, 3-6 hours): 100.2 µM
concentration of gacyclidine ([2]; DMSO stock 1:1000, 0.1N HCl (pH 1.0), 100 μM initial, 16-19 hours): 100.6 µM
concentration of gacyclidine ([2]; DMSO stock 1:1000, Ringer's Lactate pH 6.6, 100 μM initial, 0-3 hours): 96.0 µM
concentration of gacyclidine ([2]; DMSO stock 1:1000, Ringer's Lactate pH 6.6, 100 μM initial, 3-6 hours): 94.9 µM
concentration of gacyclidine ([2]; DMSO stock 1:1000, Ringer's Lactate pH 6.6, 100 μM initial, 16-19 hours): 91.3 µM
concentration of gacyclidine ([2]; DMSO stock 1:1000, Ringer's Lactate pH 7.5, 100 μM initial, 3-6 hours): 90.4 µM
concentration of gacyclidine ([2]; DMSO stock 1:1000, Ringer's Lactate pH 7.5, 100 μM initial, 16-19 hours): 79.3 µM
concentration of gacyclidine ([2]; aqueous stock 1:1000, 0.1N HCl (pH 1.0), 100 μM initial, 0-3 hours): 99.4 µM
concentration of gacyclidine ([2]; aqueous stock 1:1000, 0.1N HCl (pH 1.0), 100 μM initial, 3-6 hours): 99.8 µM
concentration of gacyclidine ([2]; aqueous stock 1:1000, 0.1N HCl (pH 1.0), 100 μM initial, 16-19 hours): 100.2 µM
concentration of gacyclidine ([2]; aqueous stock 1:1000, Ringer's Lactate pH 6.6, 100 μM initial, 0-3 hours): 95.1 µM
concentration of gacyclidine ([2]; aqueous stock 1:1000, Ringer's Lactate pH 6.6, 100 μM initial, 3-6 hours): 92.6 µM
concentration of gacyclidine ([2]; aqueous stock 1:1000, Ringer's Lactate pH 6.6, 100 μM initial, 16-19 hours): 87.7 µM
concentration of gacyclidine ([2]; aqueous stock 1:1000, Ringer's Lactate pH 7.5, 100 μM initial, 0-3 hours): 88.2 µM
concentration of gacyclidine ([2]; aqueous stock 1:1000, Ringer's Lactate pH 7.5, 100 μM initial, 3-6 hours): 72.0 µM
concentration of gacyclidine ([2]; aqueous stock 1:1000, Ringer's Lactate pH 7.5, 100 μM initial, 16-19 hours): 59.7 µM
gacyclidine remaining in solution at high pH ([3]; 0.1% CAPTISOL, 1 mM added, room temperature, two days, glass): about 14 μM
gacyclidine remaining in solution at high pH ([3]; 0.1% SOLUTOL HS15, 1 mM added, room temperature, two days, glass): ~96 μM
gacyclidine remaining in solution at high pH ([3]; 0.1% TWEEN 80, 1 mM added, room temperature, two days, glass): ~42 μM
gacyclidine base maintained in solution per gram of carrier molecule ([3]; CAPTISOL, room temperature): 0.004 grams per gram of carrier mole
gacyclidine base maintained in solution per gram of carrier molecule ([3]; SOLUTOL HS 15, room temperature): 0.02 grams per gram of carrier mole
gacyclidine base maintained in solution per gram of carrier molecule ([3]; TWEEN 80, room temperature): 0.01 grams per gram of carrier mole
solubility kinetic at 2 days ([3]; buffered aqueous solution, aqueous buffer, kinetic from dmso stock, pH 9.7, 1 mM added, room temperature, two days, glass, presence or absence of 0.1% SOLUPHOR P): 2.6 µM
pH above which precipitation of gacyclidine was observed ([3]; hydrochloride salt diluted to 1 mM in buffered aqueous solution): > 7
gacyclidine remaining in solution, % of the added gacyclidine ([3]; pH 9.7, 1 mM added, room temperature, two days, glass, presence or absence of 0.1% SOLUPHOR P): 0.26%
solubility ([3]; thermodynamic from solid, hydrochloride salt, water, read-out: final concentration giving a clear solution in water): ≥ 550000 µM
pKa ([4]; Ringer's Lactate solution, 37° C., from decomposition rates, read-out: apparent pKA): 7.6
Time for 10% Loss (37° C., Ringer's Lactate) ([4]; pH 5.5, 100 μM gacyclidine): 3.7 ± 0.1 days
Time for 10% Loss (37° C., Ringer's Lactate) ([4]; pH 6.0, 100 μM gacyclidine): 3.82 ± 0.03 days
Time for 10% Loss (37° C., Ringer's Lactate) ([4]; pH 7.4, 100 μM gacyclidine): 6.1 ± 0.4 days
decomposition rate as % of the rate expected for the acid form ([4]; pH 7.4, 37° C., Ringer's Lactate): 62%
fraction of gacyclidine in the acid form ([4]; pH 7.4 and 37° C.): 62%
